# Measurements: patent publication US9604925B2, “Class II HMG-CoA reductase inhibitors and methods of use” (Purdue Research Foundation, priority 2012, dated 2017)
# Marks after values point to notes of the source that are not given here.
# Assays:
# [1] = test system: clinical methicillin-resistant Staphylococcus aureus (MRSA) isolates; assay: MIC/MBC against clinical MRSA isolates
# [2] = test system: vancomycin resistant Enterococcus faecalis (VRE) ATCC 51299; assay: MIC/MBC micro dilution against VRE; settings: VRE ATCC 51299, MHB, 20 hours
# [3] = biological target: S. aureus HMGR (Staphylococcus aureus, UniProt Q9FD86); assay: biochemical
# [4] = test system: C. elegans infected with MRSA; assay: Treatment of C. elegans infected with MRSA; settings: MRSA-infected worms, 100 μM; for Log CFU/worm: 16 hours treatment; for Log Reduction: versus DMSO control
# [5] = test system: C. elegans infected with VRE; assay: Treatment of C. elegans infected with VRE; settings: VRE-infected worms, 100 μM; for Log CFU/worm: 16 hours treatment; for Log Reduction: versus DMSO control
# [6] = test system: methicillin-resistant Staphylococcus aureus (MRSA) ATCC 43300; assay: MIC/MBC micro dilution against MRSA; settings: for MRSA MBC: MRSA ATCC 43300, MHB, 20 hours, Table 2; for MBC / MIC: Staphylococcus aureus; for MBC, μM: MRSA, Table 1
# [7] = test system: vancomycin intermediate Staphylococcus aureus (VISA) NRS1; assay: MIC/MBC against clinical VISA isolate
# [8] = test system: Staphylococcus aureus ATCC 6538 planktonic organisms (not in biofilm); assay: MIC/MBC against planktonic S. aureus ATCC 6538; type: cell-based
# [9] = test system: Candida albicans ATCC 18804; assay: MIC/MFC against Candida albicans in YM broth; type: cell-based; settings: yeast medium broth
# Protocol: Antifungal activities of 22 HMG-CoA Reductase inhibitors were initially tested at 100 μM concentration against Candida albicans ATCC 18804.
# [10] = test system: Staphylococcus aureus ATCC 6538 adherent organisms (biofilm); assay: MIC/MBC in adherent-cell biofilm of S. aureus ATCC 6538; type: cell-based; settings: for Adherent organisms (biofilm) MIC^b: S. aureus ATCC 6538, 20 h; for Adherent organisms (biofilm) MBC^b: S. aureus ATCC 6538, regrowth 20 h in antibiotic-free MHB
# Protocol: An adherent biofilm for susceptibility testing was formed using a clinical isolate of Staphylococcus aureus (ATCC 6538). S. aureus biofilms were prepared in a tissue culture non-treated polystyrene 96-well plate (Corning) and washed with phosphate-buffered saline (PBS) to remove unbound bacteria. Subsequently, serial twofold dilutions of the compounds in MHB were added to wells containing adherent organisms. The polystyrene plates were incubated for 20 h at 37° C. The MIC was taken as the lowest drug concentration at which observable growth was inhibited.
# [11] = test system: J774A.1 cells; assay: In vitro cell viability/cytotoxicity MTS assay; type: cell-based; settings: 100 μM, 24 hours
# Protocol: Cytotoxicity of the compounds was evaluated using J774A.1 cells (mitochondrial function) in the CellTiter 96® AQueous Non-Radioactive Cell Proliferation Assay (Promega). […] Formazan is measured by measuring the absorbance at 490 nm. Briefly, ˜2×10^4 J774A.1 cells suspended in 200 μL DMEM supplemented with 10% fetal bovine serum (FBS), L-glutamine, NaHCO3, pyridoxine-HCl, and […] glucose and preserved with 1% penicillin-streptomycin solution were seeded in 96-well plates and incubated at 37° C. in a 5% CO2 atmosphere. The cells were cultured for 24 hours (60% confluency) before the assays. The J774A.1 cells were further incubated with 100 μM of compounds (2f, […], 2j, and 2e) and DMSO as a control for 24 hours. The culture media was discarded, and the cells in each well were washed with PBS and re-suspended with 100 μL of cell culture media prior to addition of the assay reagent. The plates were incubated for 4 hours at 37° C. in a humidified 5% CO2 atmosphere. The absorbance at 490 nm was recorded using a 96-well Elisa plate reader (SoftMax ProInc., USA). Results were expressed as the percentage mean absorbance by cells upon incubation with various treatments (compounds 2f, 2j, 2i, and 2e) with respect to incubation with DMSO. The results are expressed as means from six measurements±SD.
# Chain of S. aureus HMGR (Q9FD86 entry or part of it): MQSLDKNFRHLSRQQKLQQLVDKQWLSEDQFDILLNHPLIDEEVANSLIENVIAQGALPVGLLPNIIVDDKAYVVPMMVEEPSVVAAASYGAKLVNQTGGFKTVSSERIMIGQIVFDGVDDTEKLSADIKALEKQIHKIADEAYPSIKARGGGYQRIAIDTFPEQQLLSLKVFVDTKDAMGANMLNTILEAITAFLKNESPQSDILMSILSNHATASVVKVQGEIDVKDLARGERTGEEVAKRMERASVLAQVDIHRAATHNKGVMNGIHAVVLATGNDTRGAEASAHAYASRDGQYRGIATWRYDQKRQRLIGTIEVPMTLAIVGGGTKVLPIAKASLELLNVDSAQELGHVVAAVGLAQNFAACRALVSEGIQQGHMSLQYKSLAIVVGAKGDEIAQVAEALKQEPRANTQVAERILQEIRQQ
structure (smiles),measurement,setting,value
"O=C(O)c1cc(S(=O)(=O)Nc2ccc(CCC3CCCCC3)cc2)ccc1O [Compound 2l, 5-[N-(4-(2-cyclohexylethyl)phenyl)sulfamoyl]-2-hydroxybenzoic acid]",MBC,[1]; MRSA / NRS123 / USA400,16 µM
same,MIC,[1]; MRSA / NRS123 / USA400,16 µM
same,MBC,[1]; MRSA / NRS382 / USA100,16 µM
same,MIC,[1]; MRSA / NRS382 / USA100,16 µM
same,MBC,[1]; MRSA / NRS383 / USA200,16 µM
same,MIC,[1]; MRSA / NRS383 / USA200,16 µM
same,MBC,[1]; MRSA / NRS384 / USA300,16 µM
same,MIC,[1]; MRSA / NRS384 / USA300,16 µM
same,MBC,[1]; MRSA / NRS385 / USA500,16 µM
same,MIC,[1]; MRSA / NRS385 / USA500,16 µM
same,MBC,[1]; MRSA / NRS386 / USA700,16 µM
same,MIC,[1]; MRSA / NRS386 / USA700,16 µM
same,MBC,[1]; MRSA / NRS387 / USA800,16 µM
same,MIC,[1]; MRSA / NRS387 / USA800,16 µM
same,MBC,[1]; MRSA / NRS483,16 µM
same,MIC,[1]; MRSA / NRS483,8 µM
same,MBC,[1]; MRSA / NRS484,16 µM
same,MIC,[1]; MRSA / NRS484,16 µM
same,VRE MBC,[2],64/64
same,IC50,[3],16.2 ± 10 µM
same,Log CFU/worm,[4],2.20 ± 0.43 Log CFU/worm
same,Log Reduction,[4],2.84*
same,Log CFU/worm,[5],0.43 ± 0.68 Log CFU/worm
same,Log Reduction,[5],4.47*
same,MRSA MBC,[6],32/32
same,MBC,[6],32 µM
same,MIC,[6],32 µM
same,MBC,[7],16 µM
same,MIC,[7],16 µM
"CCCCc1ccc(NS(=O)(=O)c2ccc(OCC(N)=O)c(C(=O)O)c2)cc1 [Compound 3, 5-[N-(4-butylphenyl)sulfamoyl]-2-(carbamoylmethoxy)benzoic acid]","MBC, μM",[6],failed to show any enzymatic inhibition or bactericidal activity
"CCCCCCCc1ccc(NS(=O)(=O)c2ccc(O)c(C(=O)O)c2)cc1 [Compound 2e, 5-[N-(4-heptylphenyl)sulfamoyl]-2-hydroxybenzoic acid]",MBC,[1]; MRSA / NRS123 / USA400,32 µM
same,MIC,[1]; MRSA / NRS123 / USA400,32 µM
same,MBC,[1]; MRSA / NRS382 / USA100,32 µM
same,MIC,[1]; MRSA / NRS382 / USA100,32 µM
same,MBC,[1]; MRSA / NRS383 / USA200,32 µM
same,MIC,[1]; MRSA / NRS383 / USA200,16 µM
same,MBC,[1]; MRSA / NRS384 / USA300,32 µM
same,MIC,[1]; MRSA / NRS384 / USA300,32 µM
same,MBC,[1]; MRSA / NRS385 / USA500,16 µM
same,MIC,[1]; MRSA / NRS385 / USA500,16 µM
same,MBC,[1]; MRSA / NRS386 / USA700,32 µM
same,MIC,[1]; MRSA / NRS386 / USA700,32 µM
same,MBC,[1]; MRSA / NRS387 / USA800,32 µM
same,MIC,[1]; MRSA / NRS387 / USA800,16 µM
same,MBC,[1]; MRSA / NRS483,32 µM
same,MIC,[1]; MRSA / NRS483,16 µM
same,MBC,[1]; MRSA / NRS484,32 µM
same,MIC,[1]; MRSA / NRS484,16 µM
same,VRE MBC,[2],64/64
same,Planktonic organisms (not in biofilm) MBC,[8],64 µM
same,Planktonic organisms (not in biofilm) MIC,[8],64 µM
same,IC50,[3],28 µM
same,Candida albicans MFC,[9],128 µM
same,Candida albicans MIC,[9],64 µM
same,Log CFU/worm,[4],1.80 ± 0.10 Log CFU/worm
same,Log Reduction,[4],3.24*
same,Adherent organisms (biofilm) MIC^b,[10],64 µM
same,Adherent organisms (biofilm) MBC^b,[10],128 µM
same,Log CFU/worm,[5],0.86 ± 1.03 Log CFU/worm
same,Log Reduction,[5],4.04*
same,MRSA MBC,[6],64/64
same,MBC,[6],64 µM
same,MIC,[6],64 µM
same,percentage mean absorbance at 490 nm (MTS) versus DMSO,[11],no significant differences in percentage mean absorption
same,MBC,[7],16 µM
same,MIC,[7],16 µM
"O=C(O)c1cc(S(=O)(=O)Nc2ccc(CCc3ccccc3)cc2)ccc1O [Compound 2m, 2-hydroxy-5-[N-(4-phenethylphenyl)sulfamoyl]benzoic acid]","MBC, μM",[6],no enzymatic inhibition or bactericidal activity
"CC(C)CCCc1ccc(NS(=O)(=O)c2ccc(O)c(C(=O)O)c2)cc1 [Compound 2i, 2-hydroxy-5-[N-(4-(4-methylpentyl)phenyl]sulfamoyl)benzoic acid]",Planktonic organisms (not in biofilm) MBC,[8],128 µM
same,Planktonic organisms (not in biofilm) MIC,[8],128 µM
same,IC50,[3],36 ± 4 µM
same,Adherent organisms (biofilm) MIC^b,[10],128 µM
same,Adherent organisms (biofilm) MBC^b,[10],128 µM
same,MIC,[6],64 µM
same,percentage mean absorbance at 490 nm (MTS) versus DMSO,[11],no significant differences in percentage mean absorption
"CC(C)(C)CCc1ccc(NS(=O)(=O)c2ccc(O)c(C(=O)O)c2)cc1 [Compound 2k, 5-[N-(4-(3,3-dimethylbutyl)phenyl)sulfamoyl]-2-hydroxybenzoic acid]",VRE MBC,[2],128/128
same,"MBC, μM",[6],failed to exhibit any activity
"CCCc1ccc(NS(=O)(=O)c2ccc(O)c(C(=O)O)c2)cc1 [Compound 2b, 2-hydroxy-5-[N-(4-propylphenyl)sulfamoyl]benzoic acid]","IC50, μM",[3],^d (No significant inhibition of HMGR activity was observed at the concentrations tested.)
"CCCCCCc1ccc(NS(=O)(=O)c2ccc(O)c(C(=O)O)c2)cc1 [Compound 2d, 5-[N-(4-hexylphenyl)sulfamoyl]-2-hydroxybenzoic acid]",Planktonic organisms (not in biofilm) MBC,[8],128 µM
same,Planktonic organisms (not in biofilm) MIC,[8],128 µM
same,IC50,[3],77 ± 6 µM
same,Adherent organisms (biofilm) MIC^b,[10],128 µM
same,Adherent organisms (biofilm) MBC^b,[10],>128 µM
same,MRSA MBC,[6],128/128
same,MBC,[6],128 µM
same,MIC,[6],128 µM
"CCc1ccc(NS(=O)(=O)c2ccc(O)c(C(=O)O)c2)cc1 [Compound 2a, 5-[N-(4-ethylphenyl)sulfamoyl]-2-hydroxybenzoic acid]","IC50, μM",[3],^d (No significant inhibition of HMGR activity was observed at the concentrations tested.)
"CCCCCCCCCCCCCCc1ccc(NS(=O)(=O)c2ccc(O)c(C(=O)O)c2)cc1 [Compound 2h, 2-hydroxy-5-[N-(4-tetradecylphenyl)sulfamoyl]benzoic acid]",IC50,[3],1.9 µM
same,improvement of IC50 over lead compound 1,[3],45 fold
same,"MBC, μM",[6],lost bactericidal activity
"CCCCCc1ccc(NS(=O)(=O)c2ccc(O)c(C(=O)O)c2)cc1 [Compound 2c, 2-hydroxy-5-[N-(4-pentylphenyl)sulfamoyl]benzoic acid]",IC50,[3],98 ± 3 µM
"CC(=O)NC[C@H]1CN(c2ccc(N3CCOCC3)c(F)c2)C(=O)O1 [Linezolid, linezolid, reference compound]",Adherent organisms (biofilm) MIC^b,[10],4 µM
same,Adherent organisms (biofilm) MBC^b,[10],16 µM
same,Log CFU/worm,[5],1.47 ± 0.06 Log CFU/worm
same,Log Reduction,[5],3.43*
"CCCCCCCCCCCCc1ccc(NS(=O)(=O)c2ccc(O)c(C(=O)O)c2)cc1 [Compound 2g, 5-[N-(4-dodecylphenyl)sulfamoyl]-2-hydroxybenzoic acid]",VRE MBC,[2],128/128
same,IC50,[3],5.9 ± 0.5 µM
same,MRSA MBC,[6],128/>128
same,MBC,[6],128 µM
same,MIC,[6],128 µM
